The structures appear in SMILES notation.

One assay deals with Substance P Induced Relaxation of the Pig Coronary Arteries. Nature of the assay: Antagonism of substance P induced relaxation of the pig coronary arteries. Conditions: test compound concentration 3 × 10^-8 (unit not given), 30 min incubation. The protocol: Antagonism of Substance P Induced Relaxation of the Pig Coronary Arteries
Segments of coronary arteries taken from pigs (killed by injection of an overdose of sodium pentobarbital) were inverted and mounted for recording of isometric tension in organ baths (volume 20 ml) with the endothelium at the outside. The preparations were bathed in Krebs-Henseleit solution. The solution was kept at 37° C. and gassed with a mixture of O2 /CO2 (95/5). After stabilisation of the preparations, prostaglandin F2α (10^-5 M) was administered to induce a contraction. This was repeated until contractile responses became stable. Then prostaglandin F2α was again administered and substance P (3×10^-10 M and 10^-9 M cumulatively) was added. Substance P induced endothelium dependent relaxations. After washing away the agonists, a known concentration of a compound of formula (I) was added. After an incubation period of 30 minutes, prostaglandin F2α (10^-5 M) and the same concentrations of substance P as described above were again administered in the presence of the compound to be tested.
Take `O=C(c1cc(C(F)(F)F)cc(C(F)(F)F)c1)N1CC[C@@H](N2CCC(=C3c4sccc4CCn4ccnc43)CC2)C[C@H]1Cc1ccccc1` (relative stereo) [Compound 6]: the “% inhibition of the response to 10^-9 M substance P” value is 93.9%.

The same assay, now with this note: test compound concentration 3 × 10^-9 (unit not given), 30 min incubation.
As for `O=C(c1cc(C(F)(F)F)cc(C(F)(F)F)c1)N1CCC(N2CCC(C3c4ccccc4Cn4ccnc43)CC2)CC1Cc1ccccc1` (stereo not shown) [Compound 115], the “% inhibition of the response to 10^-9 M substance P” value turned out to be 60.2%.
On to `Cc1cc(C(=O)N2CC[C@@H](N3CCC(C4c5ccccc5Cn5c4nc4ccccc45)CC3)C[C@@H]2Cc2ccccc2)no1` (stereo partly shown) [Compound 97], for which the “% inhibition of the response to 10^-9 M substance P” value stood at 5.8%.
The same measure, in the same setting: for `O=C(c1cc2ccccc2s1)N1CCC(N2CCC(C3c4ccccc4Cn4c3nc3ccccc34)CC2)CC1Cc1ccccc1` (stereo not shown) [Compound 94] the value was 8.2%; for `O=C(c1cc(C(F)(F)F)cc(C(F)(F)F)c1)N1CC[C@@H](N2CCC(C3c4ccccc4Cn4ccnc43)CC2)C[C@@H]1Cc1ccccc1` (stereo partly shown) [Compound 116], 69.6%; for `O=C(c1cc(C(F)(F)F)cc(C(F)(F)F)c1)N1CC[C@H](N2CCC(=C3c4ccccc4CCn4c(Cl)cnc43)CC2)C[C@H]1Cc1ccccc1` (relative stereo) [Compound 58], 91.5%.
On the same count and under the same terms, as for `Cc1cc(C)cc(C(=O)N2CC[C@H](N3CCC(=C4c5ccc(C)cc5CCn5ccnc54)CC3)C[C@H]2Cc2ccccc2)c1` (relative stereo) [Compound 57], the figure is 66.7%; as for `O=C(c1cc(C(F)(F)F)cc(C(F)(F)F)c1)N1CC[C@H](N2CCC(C3c4ccccc4CCn4c3nc3ccccc34)CC2)C[C@H]1Cc1ccccc1` (stereo partly shown) [Compound 13], 74.2%.
On the same count and under the same terms, as for `O=C(c1cc(C(F)(F)F)cc(C(F)(F)F)c1)N1CC[C@H](N2CCC(=C3c4ccccc4CCn4c3nc(CO)c4CO)CC2)C[C@H]1Cc1ccccc1` (relative stereo) [Compound 49], the figure is 52.5%.
Turning to `Cc1cc(C)cc(C(=O)N2CCC(N3CCC(C4c5ccccc5CCn5c4nc4ccccc45)CC3)CC2Cc2ccccc2)c1` (stereo not shown) [Compound 65], the “% inhibition of the response to 10^-9 M substance P” value was determined as 27.3%.
On the same count and under the same terms, for `Cc1cc(C)cc(C(=O)N2CCC(N3CCC(=C4c5ccccc5OCn5ccnc54)CC3)CC2Cc2ccccc2)c1` (stereo not shown) [Compound 104] the value was 83.0%; for `O=C(c1cc(C(F)(F)F)cc(C(F)(F)F)c1)N1CC[C@@H](N2CCC(C3c4ccccc4CCn4c3nc3ccccc34)CC2)C[C@@H]1Cc1ccc(Cl)c(Cl)c1` (mixture of isomers) [Compound 63, (±)-trans-1-[3,5-bis(trifluoromethyl)benzoyl]-2-[(3,4-dichlorophenyl)methyl]-4-[4-(11,12-dihydro-6H-benzimidazo[2,1-b][3]benzazepin-6-yl)-1-piperidinyl]piperidine], 61.4%; for `COC(=O)c1cnc2n1CCc1ccsc1C2=C1CCN([C@@H]2CCN(C(=O)c3cc(C)cc(C)c3)[C@@H](Cc3ccccc3)C2)CC1` (relative stereo) [Compound 36], 23.7%.
The same measure, in the same setting: as for `Cc1cc(C)cc(C(=O)N2CC[C@H](N3CCC(=C4c5ccsc5CCn5ccnc54)CC3)C[C@@H]2Cc2ccccc2)c1` (relative stereo) [Compound 38], the figure is 27.1%; as for `Cc1cn2c(n1)C(=C1CCN([C@H]3CCN(C(=O)c4cc(C(F)(F)F)cc(C(F)(F)F)c4)[C@H](Cc4ccccc4)C3)CC1)c1ccn(C)c1CC2` (relative stereo) [Compound 60], 89.9%; as for `COC(=O)c1cnc2n1CCc1ccccc1C2=C1CCN([C@H]2CCN(C(=O)c3cc(C)cc(C)c3)[C@@H](Cc3ccccc3)C2)CC1` (relative stereo) [Compound 40], 8.4%.
Turning to `O=C(c1ccc2[nH]ccc2c1)N1CC[C@@H](N2CCC(=C3c4ccccc4CCn4ccnc43)CC2)C[C@@H]1Cc1ccccc1` (relative stereo) [Compound 81], the “% inhibition of the response to 10^-9 M substance P” value is reported as 2.2%.
On the same count and under the same terms, for `O=C(Nc1cc(C(F)(F)F)cc(C(F)(F)F)c1)N1CC[C@@H](N2CCC(C3c4ccccc4Cn4c3nc3ccccc34)CC2)C[C@@H]1Cc1ccccc1` (stereo partly shown) [Compound 100] the value was 13.9%; for `O=C(c1ccc2ccccc2c1)N1CC[C@H](N2CCC(=C3c4ccccc4CCn4ccnc43)CC2)C[C@@H]1Cc1ccccc1` (relative stereo) [Compound 84], 2.4%.
On the same count and under the same terms, for `Cc1cc(C)cc(C(=O)N2CC[C@@H](N3CCC4(CC3)c3ccccc3CCn3ccnc34)C[C@H]2Cc2ccccc2)c1` (relative stereo) [Compound 119, (±)-cis-4-(5,6-dihydrospiro[11H-imidazo[2,1-b][3]benzazepine-11,4'-piperidin]-1-yl)-1-(3,5-dimethylbenzoyl)-2-(phenylmethyl)piperidine] the value was 9.3%; for `Cc1cc(C)cc(C(=O)N2CCC(N3CCC(=C4c5ccc(Cl)cc5CCn5ccnc54)CC3)CC2Cc2ccccc2)c1` (stereo not shown) [Compound 31], 82.7%.
The same measure, in the same setting: as for `O=C(c1cc(C(F)(F)F)cc(C(F)(F)F)c1)N1CC[C@@H](N2CCC(=C3c4ccccc4CCn4ccnc43)CC2)C[C@H]1Cc1ccccc1` (relative stereo) [Compound 23], the figure is 13.4%; as for `O=C(c1cc(Cl)cc(Cl)c1)N1CC[C@H](N2CCC(=C3c4ccccc4CCn4ccnc43)CC2)C[C@H]1Cc1ccccc1` (relative stereo) [Compound 48], 59.7%.
Take `O=C(c1ccc2ccccc2c1)N1CC[C@@H](N2CCC(=C3c4ccccc4CCn4ccnc43)CC2)C[C@@H]1Cc1ccccc1` (relative stereo) [Compound 78]: the “% inhibition of the response to 10^-9 M substance P” value amounted to 7.5%.
`Cc1ccc2c(c1)CCn1ccnc1C2=C1CCN([C@H]2CCN(C(=O)c3cc(C(F)(F)F)cc(C(F)(F)F)c3)[C@H](Cc3ccccc3)C2)CC1` (relative stereo) [Compound 51]: the “% inhibition of the response to 10^-9 M substance P” value came out at 86.3%.
The same measure, in the same setting: as for `O=C(c1ccccc1)N1CCC(N2CCC(C3c4ccccc4Cn4c3nc3ccccc34)CC2)CC1Cc1ccccc1` (stereo not shown) [Compound 73], the figure is 2.8%; as for `O=C(c1cc(C(F)(F)F)cc(C(F)(F)F)c1)N1CC[C@H](N2CCC(=C3c4ccccc4CCn4c(Cl)cnc43)CC2)C[C@@H]1Cc1ccccc1` (relative stereo) [Compound 62], 49.0%.
For `O=C(c1cc2cc(F)ccc2[nH]1)N1CC[C@H](N2CCC(=C3c4ccccc4CCn4ccnc43)CC2)C[C@@H]1Cc1ccccc1` (relative stereo) [Compound 89], the “% inhibition of the response to 10^-9 M substance P” value is 1.1%.

(Values after US6251894A, “1-(1,2-disubstituted piperidinyl)-4 (fused imidazole)-piperidine derivatives” (Janssen Pharmaceuticals N.V., priority 1995, dated 2001).)
